Assay [1] has as its system KU-812F. Nature of the assay: Inhibition of Fc-epsilonR1 alpha mRNA expression in anti-human Fc-epsilonR1 antibody-stimulated human KU-812F cells after 24 hrs by RT-PCR. The class given is functional, cell-based.
The target in assay [2] is T1, High affinity immunoglobulin epsilon receptor subunit alpha (Homo sapiens) (UniProt P12319).
T1 sequence (whole entry): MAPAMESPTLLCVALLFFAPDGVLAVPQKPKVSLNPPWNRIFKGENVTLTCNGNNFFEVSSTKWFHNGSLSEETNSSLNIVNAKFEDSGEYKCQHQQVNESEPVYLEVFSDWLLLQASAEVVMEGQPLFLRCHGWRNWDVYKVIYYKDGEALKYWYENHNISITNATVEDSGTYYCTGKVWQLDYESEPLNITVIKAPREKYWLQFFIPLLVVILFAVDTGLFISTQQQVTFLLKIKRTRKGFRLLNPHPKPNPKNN
Put plainly: Inhibition of Fc-epsilonR1-mediated histamine release in anti-human Fc-epsilonR1 antibody-stimulated human KU-812F cells by spectrofluorimetry. The assay is classed as cell-based.

Assay [3] concerns the target T1, High affinity immunoglobulin epsilon receptor subunit alpha (Homo sapiens). Put plainly: Inhibition of Fc-epsilonR1-mediated [Ca2+]i elevation in anti-human Fc-epsilonR1 antibody-stimulated human KU-812F cells. The assay is classed as cell-based.
Assay [4] deals with KU-812F. Put plainly: Inhibition of Fc-epsilonR1 protein expression in anti-human Fc-epsilonR1 antibody-stimulated human KU-812F cells after 24 hrs by Western blotting. The class given is functional, cell-based. On the technique in general: A western blot detects proteins with antibodies after separation by electrophoresis.
Assay [5] can be described thus: Inhibition of Fc-epsilonR1 expression in anti-human Fc-epsilonR1 antibody-stimulated human KU-812F cells at 25 uM after 24 hrs by flow cytometry. The class given is functional. (Flow cytometry measures light scatter and fluorescence of single cells or particles in a stream.)
The nature of assay [6]: Inhibition of Fc-epsilonR1 expression in anti-human Fc-epsilonR1 antibody-stimulated human KU-812F cells at 50 uM after 24 hrs by flow cytometry. The assay is classed as functional.
Assay [7] is described as follows: Inhibition of Fc-epsilonR1 expression in anti-human Fc-epsilonR1 antibody-stimulated human KU-812F cells at 10 uM after 24 hrs by flow cytometry. The assay is classed as functional.
Assay [8] in a line: Inhibition of Fc-epsilonR1 expression in anti-human Fc-epsilonR1 antibody-stimulated human KU-812F cells at 5 uM after 24 hrs by flow cytometry. The class given is functional.

As to `Oc1cc(O)cc(Oc2c(O)cc(O)c3c2Oc2c(O)cc4oc5c(Oc6cc(O)cc(O)c6)c(O)cc(O)c5c4c2O3)c1`, the Activity result (in the assay on KU-812F [1]; in assay [2]; in assay [3]; in the assay on KU-812F [4]) was “Dose-dependent effect” in each case.
As to `Oc1cc(O)c2oc3cc(O)c4oc5cc(O)cc(O)c5oc4c3oc2c1` [DIOXINODEHYDROECKOL], the Activity result (in the assay with KU-812F [1]; in assay [2]; in assay [3]; in the assay on KU-812F [4]) was “Dose-dependent effect” in each case. Besides, in assay [5], the inhibition (commonly the percentage by which the read-out fell short of the control) at 25 µM was determined as 19.5%. Moreover, the inhibition at 50 µM in assay [6] worked out at 16.9%. In assay [7], this compound registered an inhibition at 10 µM of 23.1%. Besides, the inhibition at 5 µM in assay [8] is 25.2%.

Source of the values: ChEMBL document CHEMBL1152932, “Inhibitory effects of phloroglucinol derivatives isolated from Ecklonia stolonifera on Fc(epsilon)RI expression” (Bioorg Med Chem, 2009).
